The supplement of paper PMC10307832

Legend:
Test in all cases: relative viability (nuclei count vs DMSO), 5 days (fraction); higher = more cells survive
NCI-H2023 = system: NCI-H2023
Method in brief: (§1)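 Relative viability was taken as the ratio of nuclei in treated wells to nuclei in vehicle wells. Lung cancer cell lines in 1536-well plates received compounds by pin tool one day after seeding, either one drug alone or a fixed anchor-drug dose plus five library-drug doses (not always all listed) in √10 steps. Nuclei were counted on 4× images after 5 days of treatment, and values are medians of duplicate plates.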

NCI-H1792 = system: NCI-H1792
Method in brief: as §1

NCI-H520 = system: NCI-H520
Method in brief: as §1

NCI-H2087 = system: NCI-H2087
Method in brief: as §1

LCLC-103H = system: LCLC-103H
Method in brief: as §1

LU99A = system: LU99A
Method in brief: as §1

COR-L 105 = system: COR-L 105
Method in brief: as §1

A-427 = system: A-427
Method in brief: as §1

NCI-H1437 = system: NCI-H1437
Method in brief: as §1

SK-LU-1 = system: SK-LU-1
Method in brief: as §1

ABC-1 = system: ABC-1
Method in brief: as §1

201T = system: 201T
Method in brief: as §1

NCI-H1666 = system: NCI-H1666
Method in brief: as §1

SW 1573 = system: SW 1573
Method in brief: as §1

COR-L23 = system: COR-L23
Method in brief: as §1

NCI-H2009 = system: NCI-H2009
Method in brief: as §1

RERF-LC-KJ = system: RERF-LC-KJ
Method in brief: as §1

PC-14 = system: PC-14
Method in brief: as §1

EPLC-272H = system: EPLC-272H
Method in brief: as §1

EMC-BAC-2 = system: EMC-BAC-2
Method in brief: as §1

NCI-H3122 = system: NCI-H3122
Method in brief: as §1

HCC-827 = system: HCC-827
Method in brief: as §1

HCC-44 = system: HCC-44
Method in brief: as §1

EKVX = system: EKVX
Method in brief: as §1

Question: With `Nc1cccc2c1CN(C1CCC(=O)NC1=O)C2=O` (centres undefined) [Lenalidomide] + C[C@@H](Oc1cc(-c2cnn(C3CCNCC3)c2)cnc1N)c1c(Cl)ccc(F)c1Cl [Crizotinib] (partner 1 µM) as the compound, how does the relative viability (NCI-H2023; first compound 0.253 µM) read?
Answer: The relative viability was 0.661.

Question: And the relative viability (NCI-H2023; first compound 0.8 µM)?
Answer: Its relative viability is 0.785.

Question: And the relative viability (NCI-H2023; first compound 2.53 µM)?
Answer: The relative viability was 0.675.

Question: And the relative viability (NCI-H2023; first compound 8 µM)?
Answer: The relative viability was 0.596.

Question: And the relative viability (NCI-H1792; first compound 0.253 µM)?
Answer: The relative viability was 1.04.

Question: And the relative viability (NCI-H1792; first compound 0.8 µM)?
Answer: The relative viability was 0.795.

Question: What about the relative viability (NCI-H1792; first compound 2.53 µM) of the same compound?
Answer: Its relative viability is 1.12.

Question: What about the relative viability (NCI-H1792; first compound 8 µM) of the same compound?
Answer: Its relative viability is 0.96.

Question: And the relative viability (NCI-H520; first compound 0.253 µM)?
Answer: Its relative viability is 0.794.

Question: And the relative viability (NCI-H520; first compound 0.8 µM)?
Answer: The relative viability was 0.777.

Question: What about the relative viability (NCI-H520; first compound 2.53 µM) of the same compound?
Answer: Its relative viability is 0.857.

Question: And the relative viability (NCI-H520; first compound 8 µM)?
Answer: Its relative viability is 0.752.

Question: And the relative viability (NCI-H2087; first compound 0.253 µM)?
Answer: Its relative viability is 0.81.

Question: What about the relative viability (NCI-H2087; first compound 0.8 µM) of the same compound?
Answer: Its relative viability is 0.896.

Question: And the relative viability (NCI-H2087; first compound 2.53 µM)?
Answer: Its relative viability is 0.539.

Question: What about the relative viability (NCI-H2087; first compound 8 µM) of the same compound?
Answer: The relative viability was 0.928.

Question: And the relative viability (LCLC-103H; first compound 0.253 µM)?
Answer: The relative viability was 1.03.

Question: And the relative viability (LCLC-103H; first compound 0.8 µM)?
Answer: The relative viability was 0.965.

Question: And the relative viability (LCLC-103H; first compound 2.53 µM)?
Answer: Its relative viability is 1.05.

Question: What about the relative viability (LCLC-103H; first compound 8 µM) of the same compound?
Answer: The relative viability was 0.904.

Question: What about the relative viability (LU99A; first compound 0.253 µM) of the same compound?
Answer: Its relative viability is 0.525.

Question: What about the relative viability (LU99A; first compound 0.8 µM) of the same compound?
Answer: Its relative viability is 0.517.

Question: And the relative viability (LU99A; first compound 2.53 µM)?
Answer: Its relative viability is 0.559.

Question: What about the relative viability (LU99A; first compound 8 µM) of the same compound?
Answer: Its relative viability is 0.54.

Question: What about the relative viability (COR-L 105; first compound 0.253 µM) of the same compound?
Answer: Its relative viability is 0.905.

Question: What about the relative viability (COR-L 105; first compound 0.8 µM) of the same compound?
Answer: Its relative viability is 0.716.

Question: And the relative viability (COR-L 105; first compound 2.53 µM)?
Answer: The relative viability was 0.986.

Question: And the relative viability (COR-L 105; first compound 8 µM)?
Answer: Its relative viability is 1.12.

Question: What about the relative viability (A-427; first compound 0.253 µM) of the same compound?
Answer: The relative viability was 0.833.

Question: And the relative viability (A-427; first compound 2.53 µM)?
Answer: Its relative viability is 0.891.

Question: What about the relative viability (A-427; first compound 8 µM) of the same compound?
Answer: The relative viability was 0.903.

Question: And the relative viability (NCI-H1437; first compound 0.253 µM)?
Answer: Its relative viability is 1.01.

Question: And the relative viability (NCI-H1437; first compound 0.8 µM)?
Answer: Its relative viability is 0.917.

Question: And the relative viability (NCI-H1437; first compound 2.53 µM)?
Answer: Its relative viability is 1.02.

Question: What about the relative viability (NCI-H1437; first compound 8 µM) of the same compound?
Answer: The relative viability was 0.938.

Question: What about the relative viability (SK-LU-1; first compound 0.253 µM) of the same compound?
Answer: Its relative viability is 1.05.

Question: What about the relative viability (SK-LU-1; first compound 0.8 µM) of the same compound?
Answer: The relative viability was 1.06.

Question: And the relative viability (SK-LU-1; first compound 2.53 µM)?
Answer: The relative viability was 0.867.

Question: What about the relative viability (SK-LU-1; first compound 8 µM) of the same compound?
Answer: The relative viability was 0.852.

Question: And the relative viability (ABC-1; first compound 0.253 µM)?
Answer: The relative viability was 1.06.

Question: And the relative viability (ABC-1; first compound 0.8 µM)?
Answer: The relative viability was 1.25.

Question: And the relative viability (ABC-1; first compound 2.53 µM)?
Answer: Its relative viability is 1.37.

Question: What about the relative viability (ABC-1; first compound 8 µM) of the same compound?
Answer: Its relative viability is 1.43.

Question: And the relative viability (201T; first compound 0.253 µM)?
Answer: The relative viability was 1.05.

Question: What about the relative viability (201T; first compound 0.8 µM) of the same compound?
Answer: The relative viability was 1.02.

Question: What about the relative viability (201T; first compound 2.53 µM) of the same compound?
Answer: Its relative viability is 1.04.

Question: What about the relative viability (201T; first compound 8 µM) of the same compound?
Answer: The relative viability was 1.05.

Question: And the relative viability (NCI-H1666; first compound 0.253 µM)?
Answer: Its relative viability is 0.973.

Question: And the relative viability (NCI-H1666; first compound 0.8 µM)?
Answer: The relative viability was 0.807.

Question: And the relative viability (NCI-H1666; first compound 2.53 µM)?
Answer: Its relative viability is 1.19.

Question: And the relative viability (NCI-H1666; first compound 8 µM)?
Answer: The relative viability was 1.11.

Question: What about the relative viability (SW 1573; first compound 0.253 µM) of the same compound?
Answer: The relative viability was 0.801.

Question: And the relative viability (SW 1573; first compound 0.8 µM)?
Answer: Its relative viability is 0.844.

Question: What about the relative viability (SW 1573; first compound 2.53 µM) of the same compound?
Answer: The relative viability was 0.766.

Question: What about the relative viability (SW 1573; first compound 8 µM) of the same compound?
Answer: The relative viability was 0.772.

Question: And the relative viability (COR-L23; first compound 0.253 µM)?
Answer: Its relative viability is 0.656.

Question: What about the relative viability (COR-L23; first compound 0.8 µM) of the same compound?
Answer: Its relative viability is 0.634.

Question: And the relative viability (COR-L23; first compound 2.53 µM)?
Answer: Its relative viability is 0.718.

Question: And the relative viability (COR-L23; first compound 8 µM)?
Answer: The relative viability was 0.82.

Question: What about the relative viability (NCI-H2009; first compound 0.253 µM) of the same compound?
Answer: Its relative viability is 1.07.

Question: What about the relative viability (NCI-H2009; first compound 0.8 µM) of the same compound?
Answer: The relative viability was 1.03.

Question: And the relative viability (NCI-H2009; first compound 2.53 µM)?
Answer: The relative viability was 1.12.

Question: And the relative viability (NCI-H2009; first compound 8 µM)?
Answer: Its relative viability is 1.1.

Question: And the relative viability (RERF-LC-KJ; first compound 0.253 µM)?
Answer: The relative viability was 0.8.

Question: What about the relative viability (RERF-LC-KJ; first compound 0.8 µM) of the same compound?
Answer: The relative viability was 0.778.

Question: What about the relative viability (RERF-LC-KJ; first compound 2.53 µM) of the same compound?
Answer: Its relative viability is 0.827.

Question: And the relative viability (RERF-LC-KJ; first compound 8 µM)?
Answer: Its relative viability is 0.835.

Question: What about the relative viability (PC-14; first compound 0.253 µM) of the same compound?
Answer: The relative viability was 0.904.

Question: What about the relative viability (PC-14; first compound 0.8 µM) of the same compound?
Answer: Its relative viability is 0.857.

Question: What about the relative viability (PC-14; first compound 2.53 µM) of the same compound?
Answer: The relative viability was 0.905.

Question: What about the relative viability (PC-14; first compound 8 µM) of the same compound?
Answer: The relative viability was 0.914.

Question: And the relative viability (EPLC-272H; first compound 0.253 µM)?
Answer: The relative viability was 0.838.

Question: What about the relative viability (EPLC-272H; first compound 2.53 µM) of the same compound?
Answer: The relative viability was 0.802.

Question: What about the relative viability (EPLC-272H; first compound 8 µM) of the same compound?
Answer: Its relative viability is 0.8.

Question: And the relative viability (EMC-BAC-2; first compound 0.253 µM)?
Answer: The relative viability was 0.721.

Question: And the relative viability (EMC-BAC-2; first compound 0.8 µM)?
Answer: The relative viability was 0.679.

Question: What about the relative viability (EMC-BAC-2; first compound 2.53 µM) of the same compound?
Answer: Its relative viability is 0.815.

Question: What about the relative viability (EMC-BAC-2; first compound 8 µM) of the same compound?
Answer: The relative viability was 0.769.

Question: What about the relative viability (NCI-H3122; first compound 0.253 µM) of the same compound?
Answer: The relative viability was 0.261.

Question: What about the relative viability (NCI-H3122; first compound 0.8 µM) of the same compound?
Answer: Its relative viability is 0.286.

Question: What about the relative viability (NCI-H3122; first compound 2.53 µM) of the same compound?
Answer: The relative viability was 0.261.

Question: And the relative viability (NCI-H3122; first compound 8 µM)?
Answer: The relative viability was 0.258.

Question: And the relative viability (HCC-827; first compound 0.253 µM)?
Answer: The relative viability was 1.02.

Question: What about the relative viability (HCC-827; first compound 0.8 µM) of the same compound?
Answer: The relative viability was 1.02.

Question: And the relative viability (HCC-827; first compound 2.53 µM)?
Answer: Its relative viability is 0.964.

Question: And the relative viability (HCC-827; first compound 8 µM)?
Answer: The relative viability was 1.06.

Question: And the relative viability (HCC-44; first compound 0.253 µM)?
Answer: The relative viability was 0.823.

Question: What about the relative viability (HCC-44; first compound 0.8 µM) of the same compound?
Answer: The relative viability was 0.663.

Question: And the relative viability (HCC-44; first compound 2.53 µM)?
Answer: Its relative viability is 0.857.

Question: What about the relative viability (HCC-44; first compound 8 µM) of the same compound?
Answer: The relative viability was 0.832.

Question: And the relative viability (EKVX; first compound 0.253 µM)?
Answer: The relative viability was 0.978.

Question: And the relative viability (EKVX; first compound 0.8 µM)?
Answer: Its relative viability is 1.05.

Question: What about the relative viability (EKVX; first compound 2.53 µM) of the same compound?
Answer: The relative viability was 1.09.

Question: And the relative viability (EKVX; first compound 8 µM)?
Answer: Its relative viability is 0.998.
